Publication PMC5392334, “Discovery and characterization of a novel irreversible EGFR mutants selective and potent kinase inhibitor CHMFL-EGFR-26 with a distinct binding mode” (Oncotarget, 2017)

What was measured:
AAK1 = target: T1, AAK1 (Homo sapiens, UniProt Q2M2I8); experiment: KinomeScan; assay type: binding; details: read-out: % control
T1 construct: purchased DiscoveRx KINOMEscan

[1] = target: T2, ABL1(M351T)-phosphorylated (Homo sapiens, UniProt P00519, M351T); experiment: KinomeScan; assay type: binding; details: read-out: % control
T2 construct: purchased DiscoveRx KINOMEscan

[2] = target: T3, ABL1(T315I)-nonphosphorylated (Homo sapiens, UniProt P00519, T315I); experiment: KinomeScan; assay type: binding; details: read-out: % control
T3 construct: purchased DiscoveRx KINOMEscan

CAMK2G = target: T4, CAMK2G (Homo sapiens, UniProt Q13555); experiment: KinomeScan; assay type: binding; details: read-out: % control
T4 construct: purchased DiscoveRx KINOMEscan

CAMK4 = target: T5, CAMK4 (Homo sapiens, UniProt Q16566); experiment: KinomeScan; assay type: binding; details: read-out: % control
T5 construct: purchased DiscoveRx KINOMEscan

CAMKK1 = target: T6, CAMKK1 (Homo sapiens, UniProt Q8N5S9); experiment: KinomeScan; assay type: binding; details: read-out: % control
T6 construct: purchased DiscoveRx KINOMEscan

DCAMKL3 = target: T7, DCAMKL3 (Homo sapiens, UniProt Q9C098); experiment: KinomeScan; assay type: binding; details: read-out: % control
T7 construct: purchased DiscoveRx KINOMEscan

DRAK2 = target: T8, DRAK2 (Homo sapiens, UniProt O94768); experiment: KinomeScan; assay type: binding; details: read-out: % control
T8 construct: purchased DiscoveRx KINOMEscan

EGFR(L747-T751del,Sins) = experiment: KinomeScan; assay type: binding; details: 1μM
FGFR2 = target: T9, FGFR2 (Homo sapiens, UniProt P21802); experiment: KinomeScan; assay type: binding; details: read-out: % control
T9 construct: purchased DiscoveRx KINOMEscan

GCN2(Kin.Dom.2,S808G) = target: T10, GCN2(Kin.Dom.2,S808G) (Homo sapiens, UniProt Q9P2K8, S808G); experiment: KinomeScan; assay type: binding; details: read-out: % control
T10 construct: GCN2(Kin.Dom.2,S808G); purchased DiscoveRx KINOMEscan

GRK2 = target: T11, GRK2 (Homo sapiens, UniProt P25098); experiment: KinomeScan; assay type: binding; details: read-out: % control
T11 construct: purchased DiscoveRx KINOMEscan

MEK6 = target: T12, MEK6 (Homo sapiens, UniProt P52564); experiment: KinomeScan; assay type: binding; details: read-out: % control
T12 construct: purchased DiscoveRx KINOMEscan

NEK1 = target: T13, NEK1 (Homo sapiens, UniProt Q96PY6); experiment: KinomeScan; assay type: binding; details: read-out: % control
T13 construct: purchased DiscoveRx KINOMEscan

p38-gamma = target: T14, p38-gamma (Homo sapiens, UniProt P53778); experiment: KinomeScan; assay type: binding; details: read-out: % control
T14 construct: purchased DiscoveRx KINOMEscan

PIK3CA = target: T15, PIK3CA (Homo sapiens, UniProt P42336); experiment: KinomeScan; assay type: binding; details: read-out: % control
T15 construct: purchased DiscoveRx KINOMEscan

PKAC-beta = target: T16, PKAC-beta (Homo sapiens, UniProt P22694); experiment: KinomeScan; assay type: binding; details: read-out: % control
T16 construct: purchased DiscoveRx KINOMEscan

RET = target: T17, RET (Homo sapiens, UniProt P07949); experiment: KinomeScan; assay type: binding; details: read-out: % control
T17 construct: purchased DiscoveRx KINOMEscan

[3] = target: T18, RSK2(Kin.Dom.1-N-terminal) (Homo sapiens, UniProt P51812); experiment: KinomeScan; assay type: binding; details: read-out: % control
T18 construct: RSK2(Kin.Dom.1-N-terminal); purchased DiscoveRx KINOMEscan

STK36 = target: T19, STK36 (Homo sapiens, UniProt Q9NRP7); experiment: KinomeScan; assay type: binding; details: read-out: % control
T19 construct: purchased DiscoveRx KINOMEscan

TIE2 = target: T20, TIE2 (Homo sapiens, UniProt Q02763); experiment: KinomeScan; assay type: binding; details: read-out: % control
T20 construct: purchased DiscoveRx KINOMEscan

TRKC = target: T21, TRKC (Homo sapiens, UniProt Q16288); experiment: KinomeScan; assay type: binding; details: read-out: % control
T21 construct: purchased DiscoveRx KINOMEscan

VPS34 = target: T22, VPS34 (Homo sapiens, UniProt Q8NEB9); experiment: KinomeScan; assay type: binding; details: read-out: % control
T22 construct: purchased DiscoveRx KINOMEscan

[4] = system: BaF3-TEL-EGFR-T790M-C797S; experiment: Anti-proliferation, BaF3 isogenic cell lines (CellTiter-Glo); assay type: cell-based; details: Mus musculus, 72 hours, triplet testing
A549 (EGFR wt) = experiment: Anti-proliferation, NSCLC cell lines (CellTiter-Glo); assay type: cell-based; details: Homo sapiens, 72 hours, triplet testing
Procedure: (§1) The human cancer cell lines H1975, HCC827, H2122, CHO, CHL and H1355 were purchased from the American Type Culture Collection (ATCC) (Manassas, VA, USA). PC9 cell line was purchased from the Sigma-Aldrich (St. Louis, MO, USA). A549, H3255 were purchased from Cobioer Biosciences CO., LTD (Nanjing, China). […] A549 and H1355 were cultured in F-12K Nutrient Mixture (kaighn's Modification) (Gibco, USA) with 10% FBS and supplemented with 2% L-glutamine and 1% pen/strep. H3255 was cultured in BEGM media (LONZA, USA) with 10% FBS and supplemented with 2% L-glutamine and 1% pen/strep.

H1355(EGFR wt) = experiment: as above; assay type: cell-based; details: Homo sapiens, NCI-H1355, 72 hours, triplet testing
Procedure: as §1

H1703 (EGFR wt) = experiment: as above; assay type: cell-based; details: Homo sapiens, NCI-H1703, 72 hours, triplet testing
Procedure: as §1

H2122 (EGFR wt) = experiment: as above; assay type: cell-based; details: Homo sapiens, NCI-H2122, 72 hours, triplet testing
Procedure: as §1

H3255 (EGFRL858R) = experiment: as above; assay type: cell-based; details: Homo sapiens, NCI-H3255, 72 hours, triplet testing
Procedure: as §1

HCC827 (EGFR del19) = experiment: as above; assay type: cell-based; details: Homo sapiens, 72 hours, triplet testing
Procedure: as §1

PC-9 (EGFR del19) = experiment: as above; assay type: cell-based; details: Homo sapiens, 72 hours, triplet testing
Procedure: as §1

[5] = system: phosphorylation of STAT3 in HCC827 cells; experiment: Signaling pathway examination (immunoblotting); assay type: cell-based; details: Homo sapiens, 4 hours
Source text: We next examined the effects of CHMFL-EGFR-26 on EGFR mediated signaling pathways in NSCLC cell lines with different EGFR mutants. […] As expected, in the EGFR wt expressing NCSCL cell lines A549 and H1355, only autophosphorylation of EGFR was affected and none of the downstream mediators was inhibited.
Cells were then collected and lysed. Phospho-EGF Receptor, Phospho-EGF Receptor (Tyr1068), Stat3, Phospho-Stat3 (Tyr705), AKT, Phospho-AKT (Ser473), Phospho-AKT (Thr308), p44/42 MAPK (Erk1/2), Phospho-p44/42 MAPK (Erk1/2) (Thr202/ Tyr204), p70 S6 Kinase, Phospho-p70 S6 Kinase (Thr389), eIF4E, Phospho-eIF4E (Ser209), 4E-BP1, Phospho-4E-BP1 (Thr37/46) antibody (Cell Signaling Technology) were used for immunoblotting.

T20 sequence (Q02763 23-1124): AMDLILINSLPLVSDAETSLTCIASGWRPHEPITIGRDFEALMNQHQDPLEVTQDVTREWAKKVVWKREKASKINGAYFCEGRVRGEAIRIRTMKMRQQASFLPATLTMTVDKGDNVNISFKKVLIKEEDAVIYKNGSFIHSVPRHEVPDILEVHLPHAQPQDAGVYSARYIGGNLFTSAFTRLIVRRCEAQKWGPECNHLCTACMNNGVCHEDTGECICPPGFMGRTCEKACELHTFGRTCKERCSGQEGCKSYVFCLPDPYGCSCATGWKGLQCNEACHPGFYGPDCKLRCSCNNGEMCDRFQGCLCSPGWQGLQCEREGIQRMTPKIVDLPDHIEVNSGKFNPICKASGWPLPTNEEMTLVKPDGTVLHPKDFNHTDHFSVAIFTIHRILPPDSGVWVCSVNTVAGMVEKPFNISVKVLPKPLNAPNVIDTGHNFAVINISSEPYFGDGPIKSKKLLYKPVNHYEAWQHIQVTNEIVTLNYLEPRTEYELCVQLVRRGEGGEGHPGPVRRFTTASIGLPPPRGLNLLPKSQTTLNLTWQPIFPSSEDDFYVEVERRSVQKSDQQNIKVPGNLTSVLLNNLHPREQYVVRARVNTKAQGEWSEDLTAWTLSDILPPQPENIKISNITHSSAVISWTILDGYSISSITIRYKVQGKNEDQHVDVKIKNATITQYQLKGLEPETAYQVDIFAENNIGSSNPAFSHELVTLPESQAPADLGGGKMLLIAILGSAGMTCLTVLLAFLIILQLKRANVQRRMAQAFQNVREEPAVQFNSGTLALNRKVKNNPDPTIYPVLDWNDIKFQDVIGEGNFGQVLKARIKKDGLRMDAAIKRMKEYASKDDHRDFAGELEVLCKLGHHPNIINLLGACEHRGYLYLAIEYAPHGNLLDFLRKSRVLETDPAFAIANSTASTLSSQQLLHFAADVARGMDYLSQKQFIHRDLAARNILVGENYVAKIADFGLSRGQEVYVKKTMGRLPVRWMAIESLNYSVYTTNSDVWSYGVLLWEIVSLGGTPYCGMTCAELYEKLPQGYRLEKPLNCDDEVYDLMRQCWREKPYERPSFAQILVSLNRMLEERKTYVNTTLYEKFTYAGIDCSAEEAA
T22 sequence (Q8NEB9 whole entry): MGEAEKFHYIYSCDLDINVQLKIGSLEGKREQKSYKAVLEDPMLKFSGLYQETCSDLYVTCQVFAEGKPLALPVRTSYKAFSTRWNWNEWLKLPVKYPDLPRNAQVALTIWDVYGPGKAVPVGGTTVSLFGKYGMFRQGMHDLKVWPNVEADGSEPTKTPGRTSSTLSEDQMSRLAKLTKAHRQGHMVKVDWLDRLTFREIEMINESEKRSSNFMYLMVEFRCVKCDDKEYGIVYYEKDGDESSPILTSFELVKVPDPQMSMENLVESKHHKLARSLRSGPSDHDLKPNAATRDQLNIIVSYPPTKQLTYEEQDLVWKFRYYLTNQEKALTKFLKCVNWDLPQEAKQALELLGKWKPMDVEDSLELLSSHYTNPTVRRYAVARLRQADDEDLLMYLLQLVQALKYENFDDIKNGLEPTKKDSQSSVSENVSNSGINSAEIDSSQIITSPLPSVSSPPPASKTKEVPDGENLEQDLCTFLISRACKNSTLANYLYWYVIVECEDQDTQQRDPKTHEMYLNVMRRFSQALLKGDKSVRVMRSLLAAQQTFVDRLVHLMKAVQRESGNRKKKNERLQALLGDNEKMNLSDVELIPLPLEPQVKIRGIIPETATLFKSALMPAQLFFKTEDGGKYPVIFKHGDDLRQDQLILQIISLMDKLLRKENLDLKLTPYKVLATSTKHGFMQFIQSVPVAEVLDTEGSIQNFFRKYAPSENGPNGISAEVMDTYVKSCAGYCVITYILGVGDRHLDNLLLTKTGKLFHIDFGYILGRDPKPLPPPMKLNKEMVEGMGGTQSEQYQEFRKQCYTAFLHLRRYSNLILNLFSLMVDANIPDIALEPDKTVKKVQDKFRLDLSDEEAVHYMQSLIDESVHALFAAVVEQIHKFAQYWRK
T10 sequence (Q9P2K8 590-1001 S808G limits assumed): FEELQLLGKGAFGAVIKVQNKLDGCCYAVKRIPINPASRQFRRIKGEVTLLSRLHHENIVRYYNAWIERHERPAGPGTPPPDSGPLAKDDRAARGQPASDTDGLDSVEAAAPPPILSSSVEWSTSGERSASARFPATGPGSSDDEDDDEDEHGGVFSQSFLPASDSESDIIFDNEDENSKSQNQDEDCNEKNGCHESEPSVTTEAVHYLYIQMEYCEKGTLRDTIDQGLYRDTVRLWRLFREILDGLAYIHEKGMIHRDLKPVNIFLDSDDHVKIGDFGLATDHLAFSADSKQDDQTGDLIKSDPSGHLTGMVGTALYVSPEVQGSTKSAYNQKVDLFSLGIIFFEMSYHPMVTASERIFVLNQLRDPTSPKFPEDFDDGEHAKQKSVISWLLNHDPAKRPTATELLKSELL
T19 sequence (Q9NRP7 whole entry): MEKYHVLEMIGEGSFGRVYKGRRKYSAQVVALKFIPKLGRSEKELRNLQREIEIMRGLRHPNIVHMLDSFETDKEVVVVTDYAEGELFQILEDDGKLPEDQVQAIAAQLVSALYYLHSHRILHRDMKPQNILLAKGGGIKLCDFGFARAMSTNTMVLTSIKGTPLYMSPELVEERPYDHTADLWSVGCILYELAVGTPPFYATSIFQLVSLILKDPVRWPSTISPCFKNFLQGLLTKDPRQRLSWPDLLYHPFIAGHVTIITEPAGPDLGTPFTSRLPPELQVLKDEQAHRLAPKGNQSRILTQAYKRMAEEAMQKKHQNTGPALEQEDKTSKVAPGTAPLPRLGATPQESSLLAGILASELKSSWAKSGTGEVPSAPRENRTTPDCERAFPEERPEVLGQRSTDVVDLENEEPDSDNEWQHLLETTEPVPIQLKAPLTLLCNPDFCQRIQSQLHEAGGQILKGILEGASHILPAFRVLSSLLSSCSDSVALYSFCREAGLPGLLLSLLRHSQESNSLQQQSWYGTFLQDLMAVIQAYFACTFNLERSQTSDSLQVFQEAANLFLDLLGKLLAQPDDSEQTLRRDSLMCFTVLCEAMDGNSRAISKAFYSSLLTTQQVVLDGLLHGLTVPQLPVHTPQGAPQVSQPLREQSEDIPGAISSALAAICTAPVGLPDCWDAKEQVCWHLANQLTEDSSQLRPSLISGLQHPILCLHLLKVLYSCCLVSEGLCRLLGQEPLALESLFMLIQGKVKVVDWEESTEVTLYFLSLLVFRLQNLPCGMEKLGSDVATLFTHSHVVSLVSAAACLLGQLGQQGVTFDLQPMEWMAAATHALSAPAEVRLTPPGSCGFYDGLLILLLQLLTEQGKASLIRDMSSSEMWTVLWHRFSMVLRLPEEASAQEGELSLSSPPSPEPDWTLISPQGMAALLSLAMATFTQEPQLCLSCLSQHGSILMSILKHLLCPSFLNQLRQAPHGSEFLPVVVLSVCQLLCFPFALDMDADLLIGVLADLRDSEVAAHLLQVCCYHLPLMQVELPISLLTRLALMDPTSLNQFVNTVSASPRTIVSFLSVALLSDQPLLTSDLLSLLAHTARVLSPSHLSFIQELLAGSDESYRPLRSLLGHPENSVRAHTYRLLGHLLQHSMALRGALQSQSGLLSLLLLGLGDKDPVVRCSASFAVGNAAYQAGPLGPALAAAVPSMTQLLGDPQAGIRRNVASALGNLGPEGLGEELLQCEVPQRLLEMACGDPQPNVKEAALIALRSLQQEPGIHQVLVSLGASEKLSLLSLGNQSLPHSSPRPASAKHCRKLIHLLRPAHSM
T18 sequence (P51812 1-397 limits assumed): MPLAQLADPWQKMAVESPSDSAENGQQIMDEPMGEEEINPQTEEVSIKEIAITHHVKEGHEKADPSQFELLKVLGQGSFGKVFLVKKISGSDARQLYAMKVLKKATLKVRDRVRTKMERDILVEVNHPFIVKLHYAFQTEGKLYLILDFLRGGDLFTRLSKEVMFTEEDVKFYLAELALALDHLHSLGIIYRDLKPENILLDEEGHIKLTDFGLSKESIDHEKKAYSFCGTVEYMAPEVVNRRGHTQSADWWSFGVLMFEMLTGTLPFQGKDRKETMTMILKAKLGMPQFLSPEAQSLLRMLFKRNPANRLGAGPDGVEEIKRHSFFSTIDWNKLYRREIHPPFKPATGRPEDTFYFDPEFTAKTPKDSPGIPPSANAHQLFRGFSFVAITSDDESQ
T1 sequence (Q2M2I8 whole entry): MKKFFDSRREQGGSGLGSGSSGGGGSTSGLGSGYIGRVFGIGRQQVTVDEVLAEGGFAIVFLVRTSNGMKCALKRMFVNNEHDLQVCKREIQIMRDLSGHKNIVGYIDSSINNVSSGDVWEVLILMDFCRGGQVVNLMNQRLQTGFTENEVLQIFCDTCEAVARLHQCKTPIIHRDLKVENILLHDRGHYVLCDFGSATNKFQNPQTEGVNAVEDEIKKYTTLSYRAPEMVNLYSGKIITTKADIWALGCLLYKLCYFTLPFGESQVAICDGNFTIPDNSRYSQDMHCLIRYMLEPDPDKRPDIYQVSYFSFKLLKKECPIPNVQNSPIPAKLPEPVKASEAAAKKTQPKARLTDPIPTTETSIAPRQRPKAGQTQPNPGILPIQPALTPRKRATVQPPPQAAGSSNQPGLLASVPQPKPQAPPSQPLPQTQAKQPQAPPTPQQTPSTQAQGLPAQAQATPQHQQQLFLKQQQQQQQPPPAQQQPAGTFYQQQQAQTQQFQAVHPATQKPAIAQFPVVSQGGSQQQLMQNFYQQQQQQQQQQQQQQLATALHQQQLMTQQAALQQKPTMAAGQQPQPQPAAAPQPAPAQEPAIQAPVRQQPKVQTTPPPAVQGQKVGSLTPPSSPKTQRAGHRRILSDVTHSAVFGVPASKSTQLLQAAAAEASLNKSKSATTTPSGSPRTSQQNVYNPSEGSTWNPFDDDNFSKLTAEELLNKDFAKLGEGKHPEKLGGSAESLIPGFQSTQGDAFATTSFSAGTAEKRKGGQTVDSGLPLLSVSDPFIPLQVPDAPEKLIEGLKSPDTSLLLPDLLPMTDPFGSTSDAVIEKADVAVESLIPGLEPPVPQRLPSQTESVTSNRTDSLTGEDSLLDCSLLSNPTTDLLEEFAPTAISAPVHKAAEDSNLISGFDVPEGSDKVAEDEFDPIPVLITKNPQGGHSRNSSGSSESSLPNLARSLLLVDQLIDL

C=CC(=O)N1CCC[C@@H](n2nc(-c3ccc(OCc4cccc(C)n4)c(Cl)c3)c3c(N)ncnc32)C1 [CHMFL-EGFR-26]
remaining binding at 1 µM (AAK1): 96%
remaining binding at 1 µM [1]: 100%
remaining binding at 1 µM [2]: 100%
remaining binding at 1 µM (CAMK2G): 95%
remaining binding at 1 µM (CAMK4): 100%
remaining binding at 1 µM (CAMKK1): 88%
remaining binding at 1 µM (DCAMKL3): 100%
remaining binding at 1 µM (DRAK2): 91%
% control (EGFR(L747-T751del,Sins)): 21%
remaining binding at 1 µM (FGFR2): 100%
remaining binding at 1 µM (GCN2(Kin.Dom.2,S808G)): 90%
remaining binding at 1 µM (GRK2): 99%
remaining binding at 1 µM (MEK6): 95%
remaining binding at 1 µM (NEK1): 92%
remaining binding at 1 µM (p38-gamma): 100%
remaining binding at 1 µM (PIK3CA): 100%
remaining binding at 1 µM (PKAC-beta): 14%
remaining binding at 1 µM (RET): 95%
remaining binding at 1 µM [3]: 95%
remaining binding at 1 µM (STK36): 92%
remaining binding at 1 µM (TIE2): 78%
remaining binding at 1 µM (TRKC): 100%
remaining binding at 1 µM (VPS34): 89%
GI50 [4]: 3.7 µM
GI50 (A549 (EGFR wt)): 5.4 µM
GI50 (H1355(EGFR wt)): 8.1 µM
GI50 (H1703 (EGFR wt)): 7.7 µM
GI50 (H2122 (EGFR wt)): 3.5 µM
GI50 (H3255 (EGFRL858R)): 27 nM
GI50 (HCC827 (EGFR del19)): 36 nM
GI50 (PC-9 (EGFR del19)): 35 nM
EC50 [5]: < 10 nM
